Counter-ions that a name gives are not always drawn.

This assay relates to recombinant guanylate cyclase reporter cell line. Briefly: Effect on a recombinant guanylate cyclase reporter cell line. Particulars: in some cases mean values from individual determinations, read-out: MEC (minimum effective concentration). Type of assay: cell-based. As to the method: B-2. Effect on a Recombinant Guanylate Cyclase Reporter Cell Line
The cellular activity of the compounds according to the invention is determined using a recombinant guanylate cyclase reporter cell line, as described in F. Wunder et al., Anal. Biochem. 339, 104-112 (2005).
Representative MEC values (MEC=minimum effective concentration) for the compounds of the invention are shown in the table below (in some cases as mean values from individual determinations): […]
As to `Cc1cc(OCc2c(F)cccc2F)n2nc(C)c(-c3cnn(CCC(=O)O)c3)c2c1` [Example 22, 3-(4-{7-[(2,6-Difluorobenzyl)oxy]-2,5-dimethylpyrazolo[1,5-a]pyridin-3-yl}-1H-pyrazol-1-yl)propanoic acid trifluoroacetate], the minimal effective concentration turned out to be 0.1 µM.

As to `Cc1cc(OCc2c(F)cccc2F)n2nc(C)c(-c3cncc(C(=O)O)c3)c2c1` [Example 27, 5-{7-[(2,6-Difluorobenzyl)oxy]-2,5-dimethylpyrazolo[1,5-a]pyridin-3-yl}nicotinic acid], the minimal effective concentration was determined as 2 µM.

`Cc1cc(OCc2c(F)cccc2F)n2nc(C)c(-c3cnn(CCc4c(C)n[nH]c4C)c3)c2c1` [Example 25, 7-[(2,6-Difluorobenzyl)oxy]-3-{1-[2-(3,5-dimethyl-1H-pyrazol-4-yl)ethyl]-1H-pyrazol-4-yl}-2,5-dimethylpyrazolo[1,5-a]pyridine]: the minimal effective concentration was found to be 0.065 µM.

In the case of `CC(=O)c1cccc(-c2c(C)nn3c(OCc4c(F)cccc4F)cc(C)cc23)c1` [Example 2, 1-(3-{7-[(2,6-Difluorobenzyl)oxy]-2,5-dimethylpyrazolo[1,5-a]pyridin-3-yl}phenyl)ethanone], the minimal effective concentration was determined as 0.53 µM.

Take `Cc1cc(OCc2c(F)cccc2F)n2nc(C)c(-c3ccnc(N4CCNCC4)c3)c2c1` [Example 15, 7-[(2,6-Difluorobenzyl)oxy]-2,5-dimethyl-3-[2-(piperazin-1-yl)pyridin-4-yl]pyrazolo[1,5-a]pyridine]: the minimal effective concentration was determined as 0.3 µM.

In the case of `Cc1cc(OCc2c(F)ccc(F)c2F)n2nc(C)c(-c3cnn(CCN4CCOCC4)c3)c2c1` [Example 32, 2,5-Dimethyl-3-{1-[2-(morpholin-4-yl)ethyl]-1H-pyrazol-4-yl}-7-[(2,3,6-trifluorobenzyl)oxy]pyrazolo[1,5-a]pyridine trifluoroacetate], the minimal effective concentration was 0.1 µM.

On to `Cc1cc(OCc2c(F)cccc2F)n2nc(C)c(-c3cccc(C(N)=O)c3)c2c1` [Example 12, 3-{7-[(2,6-Difluorobenzyl)oxy]-2,5-dimethylpyrazolo[1,5-a]pyridin-3-yl}benzamide], for which the minimal effective concentration was 0.055 µM.

Take `Cc1cc(OCc2c(F)cccc2F)n2nc(C)c(-c3cnn(Cc4ccccc4)c3)c2c1` [Example 6, 3-(1-Benzyl-1H-pyrazol-4-yl)-7-[(2,6-difluorobenzyl)oxy]-2,5-dimethylpyrazolo[1,5-a]pyridine]: the minimal effective concentration was 0.1 µM.

As for `Cc1cc(OCc2c(F)cccc2F)n2nc(C)c(-c3cncnc3)c2c1` [Example 29, 7-[(2,6-Difluorobenzyl)oxy]-2,5-dimethyl-3-(pyrimidin-5-yl)pyrazolo[1,5-a]pyridine], the minimal effective concentration worked out at 0.3 µM.

In the case of `CCS(=O)(=O)c1cccc(-c2c(C)nn3c(OCc4c(F)cccc4F)cc(C)cc23)c1` [Example 7, 7-[(2,6-Difluorobenzyl)oxy]-3-[3-(ethylsulphonyl)phenyl]-2,5-dimethylpyrazolo[1,5-a]pyridine], the minimal effective concentration was determined as 0.065 µM.

In the case of `Cc1cc(OCc2c(F)cccc2F)n2nc(C)c(-c3csc(CN4CCOCC4)c3)c2c1` [Example 4, 7-[(2,6-Difluorobenzyl)oxy]-2,5-dimethyl-3-[5-(morpholin-4-ylmethyl)-3-thienyl]pyrazolo[1,5-a]pyridine], the minimal effective concentration is 0.07 µM.

Regarding `Cc1cc(OCc2c(F)cccc2F)n2nc(C)c(-c3cccc(CN4CCCC4)c3)c2c1` [Example 11, 7-[(2,6-Difluorobenzyl)oxy]-2,5-dimethyl-3-[3-(pyrrolidin-1-ylmethyl)phenyl]pyrazolo[1,5-a]pyridine], the minimal effective concentration came to 0.03 µM.

For `Cc1cc(OCc2c(F)cccc2F)n2nc(C)c(-c3cnn(CC(C)(C)N)c3)c2c1` [Example 16, 1-(4-{7-[(2,6-Difluorobenzyl)oxy]-2,5-dimethylpyrazolo[1,5-a]pyridin-3-yl}-1H-pyrazol-1-yl)-2-methylpropane-2-amine], the minimal effective concentration turned out to be 0.1 µM.

As for `Cc1cc(OCc2c(F)cccc2F)n2nc(C)c(-c3cnn(CCC(=O)NC4CC4)c3)c2c1` [Example 23, N-Cyclopropyl-3-(4-{7-[(2,6-difluorobenzyl)oxy]-2,5-dimethylpyrazolo[1,5-a]pyridin-3-yl}-1H-pyrazol-1-yl)propanamide], the minimal effective concentration is 0.03 µM.

On to `Cc1cc(OCc2c(F)cccc2F)n2nc(C)c(-c3cnn(CCO)c3)c2c1` [Example 24, 2-(4-{7-[(2,6-Difluorobenzyl)oxy]-2,5-dimethylpyrazolo[1,5-a]pyridin-3-yl}-1H-pyrazol-1-yl)ethanol trifluoroacetate], for which the minimal effective concentration turned out to be 0.065 µM.

With `Cc1cc(OCc2c(F)cccc2F)n2nc(C)c(-c3nc(N)c4c(n3)NC(=O)C4(C)C)c2c1` [Example 34, 4-Amino-2-{7-[(2,6-difluorobenzyl)oxy]-2,5-dimethylpyrazolo[1,5-a]pyridin-3-yl}-5,5-dimethyl-5,7-dihydro-6H-pyrrolo[2,3-d]pyrimidin-6-one trifluoroacetate], the minimal effective concentration was found to be 1 µM.

On to `Cc1cc(OCc2c(F)cccc2F)n2nc(C)c(-c3cnn(-c4ccc(F)cc4)c3)c2c1` [Example 8, 7-[(2,6-Difluorobenzyl)oxy]-3-[1-(4-fluorophenyl)-1H-pyrazol-4-yl]-2,5-dimethylpyrazolo[1,5-a]pyridine], for which the minimal effective concentration was found to be 1 µM.

Regarding `Cc1cc(OCc2c(F)cccc2F)n2nc(C3CC3)c(-c3cn[nH]c3)c2c1` [Example 31, 2-Cyclopropyl-7-[(2,6-difluorobenzyl)oxy]-5-methyl-3-(1H-pyrazol-4-yl)pyrazolo[1,5-a]pyridine], the minimal effective concentration was 0.03 µM.

Turning to `Cc1cn2c(-c3cn[nH]c3)c(C)nc2c(OCc2c(F)cccc2F)n1` [Example 19, 8-[(2,6-Difluorobenzyl)oxy]-2,6-dimethyl-3-(1H-pyrazol-4-yl)imidazo[1,2-a]pyrazine trifluoroacetate], the minimal effective concentration turned out to be 0.3 µM.

For `Cc1cc(OCc2c(F)cccc2F)n2nc(C)c(-c3cccc(NS(C)(=O)=O)c3)c2c1` [Example 13, N-(3-{7-[(2,6-Difluorobenzyl)oxy]-2,5-dimethylpyrazolo[1,5-a]pyridin-3-yl}phenyl)methansulphonamide], the minimal effective concentration stood at 0.1 µM.

Take `Cc1cc(OCC2CCCCC2)n2nc(C)c(-c3cnn(CCN4CCOCC4)c3)c2c1` [Example 33, 7-(Cyclohexylmethoxy)-2,5-dimethyl-3-{1-[2-(morpholin-4-yl)ethyl]-1H-pyrazol-4-yl}pyrazolo[1,5-a]pyridine]: the minimal effective concentration came to 0.1 µM.

As for `COC(=O)CCn1cc(-c2c(C)nn3c(OCc4c(F)cccc4F)cc(C)cc23)cn1` [Example 21, Methyl 3-(4-{7-[(2,6-difluorobenzyl)oxy]-2,5-dimethylpyrazolo[1,5-a]pyridin-3-yl}-1H-pyrazol-1-yl)propanoate trifluoroacetate], the minimal effective concentration came out at 0.03 µM.

As to `CCOC(=O)c1cncc(-c2c(C)nn3c(OCc4c(F)cccc4F)cc(C)cc23)c1` [Example 18, Ethyl 5-{7-[(2,6-difluorobenzyl)oxy]-2,5-dimethylpyrazolo[1,5-a]pyridin-3-yl}nicotinate], the minimal effective concentration came to 10 µM.

In the case of `Cc1cc(OCc2c(F)cccc2F)n2nc(C)c(-c3cncc(C(N)=O)c3)c2c1` [Example 28, 5-{7-[(2,6-Difluorobenzyl)oxy]-2,5-dimethylpyrazolo[1,5-a]pyridin-3-yl}nicotinamide], the minimal effective concentration came to 0.03 µM.

These data come from US10174021B2, “Substituted pyrazolo[1,5-A]pyridines and their use” (BAYER PHARMA AKTIENGESELLSCHAFT, priority 2014, dated 2019).
